Assay results: article PMC8617031, “Development of a BCL-xL and BCL-2 dual degrader with improved anti-leukemic activity,” (Nature Communications, 2021)
Values joined by “and” are separate entries in the source; they are usually repeats but may differ in a detail not shown here. Equal entries are not always repeated.

Key:
human platelets = assay: Viability (MTS) of human platelets; assay type: cell-based; conditions: Supplementary Fig. 12b
Method: For the viability assays in human platelets, human platelet-rich plasma (PRP) was purchased from Zenbio (cat. no. SER-PRP-SDS). PRP was used for experiments immediately after delivery. PRP was transferred into 50-ml polypropylene tubes, each containing 5 ml acid citrate buffer (cat. no. sc-214744, Santa Cruz Biotechnology). […] After gently mixing the solution, platelets were pelleted by centrifugation at 1200 × g for 10 min. Pelleted platelets were gently washed without disruption in 2 ml HEPES-buffered Tyrode’s solution (10 mM HEPES, 135 mM NaCl, 2.8 mM KCl, 1 mM MgCl2, 2 mM CaCl2, 12 mM NaHCO3, 0.4 mM NaH2PO4, 0.25% BSA and 5.5 mM glucose, pH 7.4; cat. no. PY-921WB, Boston BioProducts) containing 1 µM PGE1 and 0.2 units ml^–1 apyrase. After washing, pellets were slowly resuspended in 10 ml HEPES-buffered Tyrode’s solution containing 1 µM PGE1 and 0.2 units ml–1 apyrase. The number of platelets was counted using a HEMAVET 950FS hematology analyzer (Drew Scientific, Inc.). For viability assays, platelet number was adjusted to 2 × 10^8 per ml in HEPES-buffered Tyrode’s solution containing 1 µM PGE1, 0.2 units ml^–1 apyrase and 10% FBS. […] After 72 h treatment, 200 µl of untreated or treated platelets were plated in each well of 96-well plates, and the viability was measured by MTS assay as described above.

[1] = test system: Flag-BCL-xL (WT and lysine mutants); assay: Degradation of Flag-BCL-xL WT and lysine mutants in transfected 293T cells; assay type: cell-based, human; conditions: DMSO = 100
Method: Cells were collected, washed once with ice-cold phosphate-buffered saline, pH 7.2 (PBS, cat. no. 20012027; Thermo Fisher Scientific) and lysed in RIPA lysis buffer (Cat. No. BP-115DG, Boston Bio Products, Ashland, MA, USA) supplemented with protease and phosphatase inhibitor cocktails (Cat. No. PPC1010, Sigma-Aldrich, St. Louis, MO, USA) through sonication. The samples were centrifuged at 14,000 r.p.m. for 5 min and the supernatants were transferred into a new tube. The protein concentration in the supernatants was determined using the Pierce BCA protein Assay kit (cat. no. 23225, Thermo Fisher Scientific). The protein concentration was normalized, and the samples were reduced in 4× Laemmli’s SDS-sample buffer (cat. no. BP-110R, Boston Bio Products) and denatured at 95 °C for 5 min. An equal amount of protein samples (20–40 μg per lane) were resolved using precast 4–20% Tris-glycine gels (Mini-PROTEAN TGX, cat. no. 456–1094, Bio-Rad), and resolved proteins were transferred onto 0.2-µm pore size polyvinylidene difluoride (PVDF) blotting membranes (cat. no. LC2002, Thermo Fisher Scientific) using mini trans-blot electrophoretic transfer cell (Bio-Rad). The membranes were blocked with non-fat dry milk (5% wt/vol) in 1× Tris-buffered saline-Tween-20 (TBST, cat. no. J77500, Affymetrix) for 1 h at room temperature, and were subsequently probed with primary antibodies at a predetermined optimal concentration in non-fat dry milk (5% wt/vol in TBST) overnight at 4 °C. The membranes were washed three times (5 min each) in TBST and then incubated with horse radish peroxidase (HRP)-conjugated secondary antibodies for 1 h at room temperature. Following sufficient washing with TBST, the membranes were exposed with chemiluminescent HRP substrate (cat. no. WBKLS0500, MilliporeSigma), and the signal was detected using the ChemiDoc MP Imaging System (Bio-Rad) and quantified using the ImageJ (v1.53a) software from NIH.
Plasmids were purified on miniprep columns according to the manufacturer’s protocol (Cat. No. 27106 Qiagen, Germantown, MD, USA). The construction of Flag-BCL-xL (pDL2009) and Flag-BCL-xL-K-ko (pDL2129) were described previously. Flag-BCL-2 was a gift from Clark Distelhorst (Addgene plasmid # 18003, Watertown, MA, USA). Plasmids Flag-BCL-xL-K16-only, Flag-BCL-xL-K20-only, Flag-BCL-xL-K157-only, Flag-BCL-xL-K-ko-R34K, Flag-BCL-xL-K-ko-R102K, Flag-BCL-xL-K-ko-R132K, Flag-BCL-xL-K-ko-G186K, Flag-BCL-2-K17R, Flag-BCL-2-K22R, and Flag-BCL-2-K17/22R were constructed by using Q5® Site-Directed Mutagenesis Kit (Cat. No. E0554S, NEB, Ipswich, MA, USA) and the following primer sets. Flag-BCL-xL-K-ko (pDL2129) or Flag-BCL-2 was used as the template. Flag-BCL-xL-K16-only: forward (5′-[…]a[…]-3′) and reverse (5′-[…]-3′); Flag-BCL-xL-K20-only: forward (5′-[…]a[…]-3′) and reverse (5′-[…]-3′); Flag-BCL-xL-K157-only: forward (5′-[…]a[…]-3′) and reverse (5′-[…]-3′); Flag-BCL-xL-R34K: forward (5′-[…]a[…]-3′) and reverse (5′-[…]-3′); Flag-BCL-xL-R102K: forward (5′-[…]aa[…]-3′) and reverse (5′-[…]-3′); Flag-BCL-xL-R132K: forward (5′-[…]aa[…]-3′) and reverse (5′-[…]-3′); Flag-BCL-xL-G186K: forward (5′-[…]aa[…]-3′) and reverse (5′-[…]-3′); Flag-BCL-2-K17R: forward (5′-[…]g[…]-3′) and reverse (5′-[…]-3′); Flag-BCL-2-K22R: forward (5′-[…]g[…]-3′) and reverse (5′-[…]-3′); Flag-BCL-2-K17/22R: forward (5′-cattatag[…]-3′) and reverse (5′-gatgtacc[…]-3′). DNA sequences in all these plasmids were authenticated by automatic sequencing. […] The cells were harvested using RIPA lysis buffer containing protease and phosphatase inhibitor as mentioned above. The primers used in this study are also listed in Supplementary Table 1.

| SMILES | toxicity to platelets relative to ABT263 (human platelets) | relative Flag-BCL-xL protein content ([1]; K16-only mutant, 753b-treated 293T, Fig. 5a) | relative Flag-BCL-xL protein content ([1]; K20-only mutant, 753b-treated 293T, Fig. 5a) | relative Flag-BCL-xL protein content ([1]; WT Flag-BCL-xL, 753b-treated 293T, Fig. 5a, 3 replicates) | relative Flag-BCL-xL protein content ([1]; K157-only mutant, DT2216-treated 293T, Fig. 1f) | relative Flag-BCL-xL protein content ([1]; K-ko mutant, DT2216-treated 293T, Fig. 1f) | relative Flag-BCL-xL protein content ([1]; K-ko-G186K mutant, DT2216-treated 293T, Fig. 1f) | relative Flag-BCL-xL protein content ([1]; K-ko-R34K mutant, DT2216-treated 293T, Fig. 1f) | relative Flag-BCL-xL protein content ([1]; K-ko-R102K mutant, DT2216-treated 293T, Fig. 1f) | relative Flag-BCL-xL protein content ([1]; K-ko-R132K mutant, DT2216-treated 293T, Fig. 1f) | relative Flag-BCL-xL protein content ([1]; WT Flag-BCL-xL, DT2216-treated 293T, Fig. 1f, 3 replicates) |
| --- | --- | --- | --- | --- | --- | --- | --- | --- | --- | --- | --- |
| Cc1ncsc1-c1ccc([C@H](C)NC(=O)[C@@H]2C[C@@H](O)CN2C(=O)[C@@H](NC(=O)CCCCCCC(=O)N2CCN(C[C@]3(C)CCC(c4ccc(Cl)cc4)=C(CN4CCN(c5ccc(C(=O)NS(=O)(=O)c6ccc(N[C@H](CCN7CCOCC7)CSc7ccccc7)c(S(=O)(=O)C(F)(F)F)c6)cc5)CC4)C3)CC2)C(C)(C)C)cc1 [753b] | about three-fold less toxic to platelets than ABT263 | 86 and 85 and 66 | 29 and 42 and 46 | 34 and 30 and 42 |  |  |  |  |  |  |  |
| Cc1ncsc1-c1ccc([C@H](C)NC(=O)[C@@H]2C[C@@H](O)CN2C(=O)[C@@H](NC(=O)CCCCCC(=O)N2CCN(CC[C@H](CSc3ccccc3)Nc3ccc(S(=O)(=O)NC(=O)c4ccc(N5CCN(CC6=C(c7ccc(Cl)cc7)CCC(C)(C)C6)CC5)cc4)cc3S(=O)(=O)C(F)(F)F)CC2)C(C)(C)C)cc1 [DT2216] |  |  |  |  | 91 and 97 and 105 | 95 and 102 and 90 | 81 and 88 and 95 | 50 and 41 and 44 | 64 and 57 and 51 | 55 and 50 and 58 | 7 and 33 and 22 |
